Source: the Biogen ADME set (Fang et al. 2023)
Values after ≈ are worked out from the molar mass of the structure shown.

Settings: for aqueous solubility: pH 6.8

Row | Compound | MDR1-MDCK efflux ratio | intrinsic clearance, human liver microsomes [mL/min/kg] | intrinsic clearance, rat liver microsomes [mL/min/kg] | aqueous solubility [µg/mL] | fraction unbound, human plasma | fraction unbound, rat plasma
1 | CCCc1nn(CCCN2CCCCC2)c(=O)o1 | 0.542 | 13.6 | 1600 |  |  | 
2 | N#CCSCC(=O)NC1CCCCCC1 | 0.743 | ≤ 4.74 | 38.2 | 44.8 (≈ 198 µM) |  | 
3 | NC(=O)C1(Cc2ccc(-c3ccncc3)cc2)CCN(C(=O)Cc2cccc(F)c2)CC1 |  |  |  | 63 (≈ 146 µM) | 0.102 | 0.114
4 | COC(=O)Nc1nc2ccccc2[nH]1 |  |  |  | 8.05 (≈ 42.1 µM) |  | 
5 | Cc1c(-c2c(F)cc(C(N)=O)c3[nH]c4c(c23)CC[C@H](C(C)(C)O)C4)cccc1-n1c(=O)c2cccc(F)c2n(C)c1=O | 3.4 | 11.4 | 43.4 | 2.4 (≈ 4.19 µM) | 0.0273 | 0.0212
6 | C#CCN1CCN(C(=O)CCS(C)(=O)=O)CC1 |  | ≤ 4.74 | ≤ 10.7 | 73.8 (≈ 285 µM) |  | 
7 | C(=C\c1ccccc1)/CNCc1ccc2c(c1)OCO2 | 0.337 | 38.9 | 573 | 40.1 (≈ 150 µM) |  | 
8 | N#CC1(NC(=O)c2ccc3c(c2)OCO3)CCCC1 |  | ≤ 4.74 | 64.9 |  |  | 
9 | O=C1CSc2ccc(C(=O)Nc3cc(C4CC4)n[nH]3)cc2N1 |  | 8.23 | 241 | 4.31 (≈ 13.7 µM) |  | 
10 | Fc1ccc(-c2ccc3c(c2)[nH]c2ccncc23)cn1 | 0.469 | 16.8 | 162 |  | 0.045 | 0.0437
11 | O=C(NCCc1c[nH]c2cccc(C3(O)CCOCC3)c12)c1cccs1 |  |  |  | 65.5 (≈ 177 µM) |  | 
12 | O=C(O)c1ccc(CCC(=O)N2CCc3c(F)cc(F)cc3C2)cc1 | 4.05 | ≤ 4.74 | ≤ 10.7 |  |  | 
13 | Nc1ccc(N2C(=O)CCCC2=O)cc1 |  |  |  | 28 (≈ 137 µM) |  | 
14 | Cc1[nH]nc2c1C1(CCCCC1)CC(=O)N2 | 3.36 | 8.44 | 45.6 |  | 0.21 | 0.193
15 | Cc1cc(Nc2nnc(C)s2)cc(C2CN(C(=O)c3c(C(C)C)noc3C)CCO2)n1 (stereo not drawn) | 54.3 | 22.5 | 151 |  |  | 
16 | CCCCCCCCc1ccc(CC[C@](N)(CO)COP(=O)(O)O)cc1 |  | 7.61 |  |  |  | 
17 | CCCNC(=O)Nc1ccc(Oc2ncnc3cc(OC)c(OC)cc23)cc1Cl | 6.08 |  |  | 0.22 (≈ 0.528 µM) |  | 
18 | O=C([C@H]1CCCN(Cc2ccc(F)cc2)C1)N1CCc2ccccc2C1 | 0.792 | 336 | 3660 | 50 (≈ 142 µM) |  | 
19 | CC(=O)N1CCC(CNc2nccc3cccnc23)CC1 | 1.9 | ≤ 4.74 | 80.8 |  |  | 
20 | O=c1[nH]c2ccccc2n1C1CCN(c2ncnc3sccc23)CC1 |  | 35 | 339 | 4.25 (≈ 12.1 µM) |  | 

Row | Compound | MDR1-MDCK efflux ratio | intrinsic clearance, human liver microsomes [mL/min/kg] | intrinsic clearance, rat liver microsomes [mL/min/kg] | aqueous solubility [µg/mL] | fraction unbound, human plasma | fraction unbound, rat plasma
21 | CCOc1ccc2c(c1)cc(CN1CCSCC1)c1nn(C)c(=O)n12 |  | 88.1 | 604 |  |  | 
22 | CC(C)CN(c1ncnc2c1cnn2C)C1CC1 | 0.731 | 50.5 | 345 | 29.6 (≈ 121 µM) |  | 
23 | O=C(Nc1ccc(COC2CCCC2)cc1)N1CCC(CO)CC1 | 5.55 | ≤ 4.74 | 329 |  |  | 
24 | CC(C)Cn1cnc2c1c(=O)[nH]c(=O)n2CC(C)C | 1.96 | ≤ 4.74 | 73.9 | 55.3 (≈ 209 µM) |  | 
25 | CC(C)c1noc(CN(C)C2CCCC2)n1 |  | 15.9 | 657 | 17.3 (≈ 77.3 µM) |  | 
26 | CN(C(=O)[C@@H](N)Cc1ccccc1)c1ccccc1 |  | ≤ 4.74 | 392 |  |  | 
27 | CN(C)C(=O)COC(=O)Cc1ccc(OC(=O)c2ccc(NC(=N)N)cc2)cc1 | 0.707 | 102 | 936 | 77.6 (≈ 195 µM) |  | 
28 | Fc1ccc(CNc2nnc(-c3ccc4c(c3)OCO4)o2)cc1 | 0.313 | 95.2 | 4490 | 2.57 (≈ 8.2 µM) |  | 
29 | CN1CCN(c2ncncc2-c2nc(-c3ccccc3)no2)CC1 | 0.527 | 28.1 | 484 | 56.4 (≈ 175 µM) |  | 
30 | CN(C)Cc1cccc(N/C(=C2\C(=O)Nc3cc(C(=O)N(C)C)ccc32)c2ccccc2)c1 | 45.4 | 76.2 | 152 | 65.7 (≈ 149 µM) |  | 
31 | FC(F)(F)c1ccc(Nc2nc3cc(Oc4ccnc(-c5ncc(C(F)(F)F)[nH]5)c4)ccc3[nH]2)cc1 | 0.86 |  |  | 0.35 (≈ 0.694 µM) |  | 
32 | O=C(c1ccccn1)N1CCCC(c2cccc(-c3cccc(Cl)c3)n2)C1 (stereo not drawn) | 0.791 | 164 | 1300 | 29.9 (≈ 79.3 µM) |  | 
33 | CN1CCN(S(=O)(=O)c2ccc(C(F)(F)F)nc2)C(C)(C)C1 | 0.642 | 42.2 | 661 |  |  | 
34 | Nc1ccccc1OCCn1ccnc1 | 0.815 | 7.07 | 30.6 | 24.7 (≈ 121 µM) |  | 
35 | CN1C(=O)[C@H](Cc2ccccc2)N[C@@H]1C(C)(C)C | 0.771 | 53.9 | 747 | 30.3 (≈ 123 µM) |  | 
36 | COc1ccc(OCc2n[nH]c(-c3n[nH]c4c3CCC4)n2)cc1 | 2.2 | 50.9 | 1070 |  |  | 
37 | CNC(=O)c1ccc2c(c1)CCO[C@H]2CCN1CCN(c2ccc(C(N)=O)cc2)CC1 | 21.5 | ≤ 4.74 | ≤ 10.7 | 90 (≈ 213 µM) |  | 
38 | C#CCN1CCC(c2nc(Cc3noc(C)n3)no2)CC1 | 0.732 | ≤ 4.74 | 12.8 | 49.5 (≈ 172 µM) |  | 
39 | CC(C)Oc1cccc(C(C)NC(=O)c2ccnc(-n3cncn3)c2)c1 (stereo not drawn) | 1.81 | 70.8 | 258 |  |  | 

The next lines start with the values.

Row | MDR1-MDCK efflux ratio | intrinsic clearance, human liver microsomes [mL/min/kg] | intrinsic clearance, rat liver microsomes [mL/min/kg] | aqueous solubility [µg/mL] | fraction unbound, human plasma | fraction unbound, rat plasma | Compound
40 | 0.232 | 26 | 146 | 23 (≈ 87.1 µM) |  |  | CCc1nc(NC(=O)c2ccccc2F)sc1C
41 | 0.578 | 6.67 | 127 |  |  |  | O=C(Nc1cnc2ccccc2n1)c1ccncc1
42 | 0.53 | ≤ 4.74 | 26.2 | 25.6 (≈ 125 µM) |  |  | Nc1ccc(Oc2ccccc2F)nc1
43 | 0.975 | ≤ 4.74 | ≤ 10.7 |  |  |  | Cc1nc(NCc2ccc(F)cc2)n(C)n1
44 | 2.45 | 32.6 | 776 |  |  |  | O=C(CC/C=C/c1ccccc1)Nc1ccccc1N1CCOC1=O
45 |  | ≤ 4.74 | 26 |  |  |  | Cc1cc(NC(=O)c2c(F)cccc2Cl)no1
46 | 0.818 | 33.7 | 342 | 52.3 (≈ 168 µM) |  |  | COc1cccc(CC(=O)Nc2ccc3nc(C)sc3c2)c1
47 | 0.598 |  |  | 0.76 (≈ 2.43 µM) |  |  | CNC(=O)c1ccc(/C=C/c2nc3cc(Cl)ccc3o2)cc1
48 |  | 33.2 | 302 |  |  |  | Cc1ccccc1-c1cc(N)n(Cc2ccccc2)n1
49 |  | 6.42 | 15.5 |  |  |  | Cc1cc(NC(=O)c2ccc(NC3CC3)nc2)[nH]n1
50 |  |  |  | 0.27 (≈ 0.719 µM) |  |  | COc1ccc(-c2nnc(NC(=O)c3ccc4ccccc4c3)o2)cc1OC
51 | 0.69 | 92.8 | 941 | 64 (≈ 207 µM) |  |  | Cc1cc(C(=O)N(C)Cc2ccc(Br)cc2)no1
52 | 11.2 | 143 | 656 | 39.3 (≈ 119 µM) |  |  | CCc1ccc2nc(C)cc(C(=O)N3CC(c4cccnc4)C3)c2c1
53 | 0.6 | 92.1 | 3950 | 21.5 (≈ 80.2 µM) |  |  | Cc1nc(-c2cc(C)on2)n(CCc2ccccc2)n1
54 | 0.63 | ≤ 4.74 | 40.2 | 23.5 (≈ 106 µM) |  |  | CC(C)n1nnnc1-c1ccc(N)cc1F
55 | 0.687 | ≤ 4.74 | 80.1 | 45.8 (≈ 171 µM) |  |  | CCOC(=O)c1cccnc1-c1cccc2ccnn12
56 | 2.77 | 21.6 | 2910 |  |  |  | Cc1cccc(-c2cccc(C(=O)NCCC3(O)CCCC3)c2)n1
57 |  | 62.8 | 653 |  |  |  | Cc1nccc(-c2cccc(NCC(=O)NCc3ccccc3)c2)n1
58 | 24.4 | 33.2 | 394 | 51.4 (≈ 139 µM) |  |  | O=C(Nc1nccs1)C1CCN(C(=O)CN2CCc3ccccc32)CC1
59 | 0.769 | 11.4 | 106 | 3.86 (≈ 11.1 µM) |  |  | Cc1cc(C)n(-c2ccc(CNC(=O)c3ccc4c(c3)CCO4)cn2)n1
